Drawing on PubChem BioAssay (NCI), this text covers TGI for 8 compounds.

Some test systems named below: 786-0 renal; ACHN renal; IGROV1 ovarian; KM12 colon; M14 melanoma; MALME-3M melanoma; NCI-H460 lung; RPMI-8226 leukemia; SF-268 CNS; SK-MEL-2 melanoma; SK-MEL-5 melanoma; SN12C renal; TK-10 renal; UACC-62 melanoma; UO-31 renal; CAKI-1 renal.
What all share (test): DTP human tumour cell line panel, 48 h

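Grown in 96-well plates, cells were treated for 48 hours with each compound at five concentrations. Insufficient inhibition: endpoint recorded as highest concentration tested. TGI: concentration producing complete growth inhibition.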 A value given as a limit tells only on which side of the number the result lay.

In the case of `CC1=NN2C(c3ccc([N+](=O)[O-])cc3)=CSC2=NC(C)(C)C1`, the TGI with 786-0 renal, in the experiment on ACHN renal, in the experiment with IGROV1 ovarian, in the experiment on KM12 colon, in the experiment with M14 melanoma and with MALME-3M melanoma was greater than 100 µM in each case. Besides, the TGI with NCI-H460 lung, with RPMI-8226 leukemia, with SF-268 CNS, in the experiment on SK-MEL-2 melanoma, in the experiment on SK-MEL-5 melanoma and with SN12C renal was greater than 100 µM in each case. For the same compound, the TGI in the experiment on TK-10 renal, in the experiment on UACC-62 melanoma and with UO-31 renal was greater than 100 µM each time.
Regarding `Nc1nc(N)c2ncn(CCOC(c3ccccc3)P(=O)(O)O)c2n1` (stereo not given), the TGI with 786-0 renal, in the experiment with ACHN renal, in the experiment with CAKI-1 renal, with IGROV1 ovarian, with KM12 colon and in the experiment with MALME-3M melanoma was greater than 100 µM each time. The TGI in the experiment with NCI-H460 lung, in the experiment with SF-268 CNS, in the experiment with SK-MEL-2 melanoma, with SK-MEL-5 melanoma, in the experiment on SN12C renal and in the experiment with TK-10 renal was greater than 100 µM in each case. Besides, the TGI in the experiment on UACC-62 melanoma and in the experiment with UO-31 renal was greater than 100 µM each time.
Take `CCN(CC)C(=S)SCC(=O)Nc1nc2c(s1)CCCC2`: the TGI with 786-0 renal, with ACHN renal, with IGROV1 ovarian, in the experiment with KM12 colon, in the experiment with M14 melanoma and in the experiment on MALME-3M melanoma was greater than 100 µM each time. Besides, the TGI was greater than 100 µM in the experiment with NCI-H460 lung; greater than 100 µM in the experiment on RPMI-8226 leukemia; greater than 100 µM in the experiment on SF-268 CNS; greater than 100 µM in the experiment on SK-MEL-2 melanoma; 49.7 µM in the experiment on SK-MEL-5 melanoma; greater than 100 µM in the experiment on SN12C renal. For the same compound, the TGI with TK-10 renal and in the experiment on UO-31 renal was greater than 100 µM in each case.
Consider `CC1(C)C(=O)C(C)(C)C1=NNC(N)=S`, for which the TGI in the experiment on 786-0 renal, with ACHN renal, in the experiment with CAKI-1 renal, in the experiment on IGROV1 ovarian, with KM12 colon and in the experiment on M14 melanoma was greater than 100 µM each time. Besides, the TGI in the experiment with MALME-3M melanoma, in the experiment on NCI-H460 lung, in the experiment with RPMI-8226 leukemia, with SF-268 CNS, with SK-MEL-5 melanoma and in the experiment with SN12C renal was greater than 100 µM in each case. For the same compound, the TGI in the experiment with TK-10 renal, in the experiment on UACC-62 melanoma and in the experiment with UO-31 renal was greater than 100 µM throughout.
Consider `CSc1ccc(NC(=O)C2c3[nH]c4ccccc4c3C3CCC(C(C)(C)C)CC3C2C(=O)O)cc1` (stereo not given), for which the TGI in the experiment on 786-0 renal was determined as 32.2 µM; in the experiment with ACHN renal, 32 µM; in the experiment on IGROV1 ovarian, 51.8 µM; in the experiment on M14 melanoma, 44.6 µM; in the experiment on MALME-3M melanoma, 46.8 µM; with RPMI-8226 leukemia it was 58.6 µM. The TGI worked out at 47 µM in the experiment on SF-268 CNS; 66 µM with SK-MEL-5 melanoma; 36.8 µM with SN12C renal; 67.1 µM in the experiment with UACC-62 melanoma; 61.6 µM with UO-31 renal.
Take `C=CCCCN1CCCC(C)C1=S` (stereo not given): the concentration for total growth inhibition (TGI) with 786-0 renal, in the experiment on ACHN renal, in the experiment on IGROV1 ovarian, in the experiment with KM12 colon, in the experiment with M14 melanoma and with MALME-3M melanoma was greater than 100 µM throughout. Moreover, the TGI in the experiment on NCI-H460 lung, in the experiment on RPMI-8226 leukemia, with SF-268 CNS, with SK-MEL-2 melanoma, in the experiment with SK-MEL-5 melanoma and in the experiment on TK-10 renal was greater than 100 µM each time. In addition, the TGI with UACC-62 melanoma and with UO-31 renal was greater than 100 µM throughout.
`CC1(C)c2ccccc2N2O[C@@H]3C(=O)N(c4ccccc4)C(=O)[C@@H]3C21c1ccccc1` (stereo not given in full): the TGI in the experiment on 786-0 renal, in the experiment on CAKI-1 renal, in the experiment on IGROV1 ovarian, in the experiment with KM12 colon, in the experiment with M14 melanoma and in the experiment with MALME-3M melanoma was greater than 100 µM throughout. Moreover, the TGI with RPMI-8226 leukemia, in the experiment on SF-268 CNS, in the experiment on SK-MEL-2 melanoma, in the experiment on SK-MEL-5 melanoma, with SN12C renal and with TK-10 renal was greater than 100 µM each time. The TGI in the experiment on UACC-62 melanoma and with UO-31 renal was greater than 100 µM throughout.
For `Cc1c2ccncc2c(C)c2c1[nH]c1ccc(Oc3ccccc3)cc12`, the TGI in the experiment with 786-0 renal is 3.24 µM; with ACHN renal, 17.3 µM; in the experiment with CAKI-1 renal it was greater than 100 µM; with IGROV1 ovarian it was 42.4 µM; in the experiment on KM12 colon, 9.49 µM; in the experiment on MALME-3M melanoma it was 3.58 µM. The TGI in the experiment on RPMI-8226 leukemia was 5.27 µM; in the experiment with SF-268 CNS it was greater than 28.4 µM; in the experiment on SK-MEL-5 melanoma, 9.46 µM; with SN12C renal, 4.69 µM; in the experiment with TK-10 renal, 22.9 µM; in the experiment on UACC-62 melanoma, 3.16 µM. In the experiment on UO-31 renal, the TGI worked out at 35.2 µM.

As a reminder, the TGI is the concentration at which net growth stops.
